Data reported in patent publication US12398108B2, “Compounds, compositions, and methods for treating diseases” (Drexel University, priority 2017, dated 2025).

Columns and labels:
Sigma1 receptor = Sigma1 receptor (Homo sapiens, UniProt Q99720); assay: binding to Sigma1 receptor
Human Androgen Receptor = assay: Indigo Biosciences Human Androgen Receptor Reporter Assay System; assay type: cell-based
Experimental: The compound's activity was also measured for its ability to inhibit androgen receptor reporter activity. The assay that was used was Indigo Biosciences Human Androgen Receptor Reporter Assay System. […] Based upon these activities, the compounds are expected to have anti-tumor effects.

breast cancer = assay: administration to a subject who has breast cancer; assay type: in vivo
Experimental: 1-(2,2-Dimethyl-3-(4-(trifluoromethyl)phenoxy)propyl)-3-(pyrimidin-5-yl)guanidine is administered to a subject who has breast cancer. The tumor growth is inhibited and the tumor size is reduced.

[1] = administration to a subject in pain; assay type: in vivo
Experimental: 1-(2,2-Dimethyl-3-(4-(trifluoromethyl)phenoxy)propyl)-3-(pyrimidin-5-yl)guanidine is administered to a subject in pain. The subject's pain is alleviated.

Sigma1 receptor, sequence (Q99720 whole entry, species assumed): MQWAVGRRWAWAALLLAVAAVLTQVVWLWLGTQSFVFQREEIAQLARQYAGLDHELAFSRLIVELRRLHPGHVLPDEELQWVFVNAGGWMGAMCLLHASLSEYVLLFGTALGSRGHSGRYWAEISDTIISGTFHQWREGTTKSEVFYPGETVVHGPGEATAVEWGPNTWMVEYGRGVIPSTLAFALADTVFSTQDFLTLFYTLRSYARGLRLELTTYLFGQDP

CC(C)(CNC(=N)Nc1cncnc1)COc1ccc(C(F)(F)F)cc1 [1-(2,2-Dimethyl-3-(4-(trifluoromethyl)phenoxy)propyl)-3-(pyrimidin-5-yl)guanidine]
binding to Sigma1 receptor (Sigma1 receptor): nanomolar range | ability to inhibit androgen receptor reporter activity (Human Androgen Receptor): active | tumor growth (breast cancer): inhibited | tumor size (breast cancer): reduced | subject's pain [1]: alleviated
